Patent US20090263324A1, “Animal Model With Induced Arrhythmia” (priority 2005, published 2009)

Legend:
[1] = tested on: chronic atrioventricular block monkeys; experiment: Evaluation of QT interval prolongation by dl-sotalol (Holter electrocardiogram); format: in vivo, cynomolgus monkey; conditions: oral administration of 5 mg/kg
Source text: QTc interval (ms) is a value obtained by correcting the fluctuation of QT interval due to heart rate by a numerical formula, and can be obtained by the following equation.
QTc=QT÷^3√{square root over ( )} (60÷ventricular rhythm)
Here, ventricular rhythm refers to the frequency of excitation of the ventricle in a complete atrioventricular block, and the unit of measurement is beat/minute.
Next, a comparison is made between the QT interval or QTc interval in the recipient animal and the QT interval or QTc interval in the same animal but before administration. QT interval or QTc interval prolongation can be determined by (value after administration)−(value before administration).
As the control solution, 0.5% methylcellulose solution was orally administered, and changes of electrocardiogram were examined; on a later day, 5 mg/kg dl-sotalol (group-3 antiarrhythmic agent) was orally administered to the same animals, and electrocardiogram was measured.

[2] = tested on: chronic atrioventricular block monkey model; experiment: Examination for onset of Torsades de pointes (TdP) with dl-sotalol administration; format: in vivo, cynomolgus monkey; conditions: five animals
Experimental: A Holter electrocardiograph was attached to each of five animals of the chronic atrioventricular block monkey model obtained in Example 1; 1, 3, 5 or 10 mg/kg dl-sotalol was orally administered to each animal, and electrocardiogram after administration was monitored.

## CC(C)NCC(O)c1ccc(NS(C)(=O)=O)cc1 (racemic) [dl-sotalol]
[1]
  time after administration with statistically significant QTc action compared to the solvent group: 1 to 4 h
[1]; Holter electrocardiograph for 24 hours, compared to the solvent group
  QTc interval prolongation: QTc interval prolongation was observed
[2]; 5 mg/kg orally
  animals in which TdP occurred: 4 of the 5 animals
[2]; 10 mg/kg orally
  animals in which TdP occurred: all animals
